Measurements taken from patent US20200368315A1, “ANTIMICROBIAL PEPTIDES AND ADMIXTURES THEREOF SHOWING ANTIMICROBIAL ACTIVITY AGAINST GRAM-NEGATIVE PATHOGENS” (priority 2017, published 2020).
Values after ≈ are worked out from the molar mass of the structure shown.

Experiments:
[1] = system: E. coli LMG15862; experiment: microbe, parasite or virus in culture; assay type: cell-based, Escherichia coli; conditions: LMG15862
Procedure, shortened: (§1)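 Duplicate two-fold dilution series in MHB; inoculum 5*10^5 CFU/mL final, verified by colony count on agar. MIC read as lowest concentration blocking visible growth.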

[2] = system: A. baumannii LMG01041; experiment: microbe, parasite or virus in culture; assay type: cell-based, Acinetobacter baumannii; conditions: LMG01041
Procedure, shortened: as §1

[3] = system: E. aerogenes LMG 02094; experiment: microbe, parasite or virus in culture; assay type: cell-based, Enterobacter aerogenes; conditions: LMG 02094
Procedure, shortened: as §1

[4] = system: Acinetobacter baumannii ATCC BAA-1605; experiment: microbe, parasite or virus in culture; conditions: ATCC BAA-1605
Method: (§2) Testing was performed according to CLSI (Clinical Laboratory Standards Institute) guidelines. Read out of the study was determination of MIC—minimal inhibitory concentration expressed in μg/mL.
(§3) Out of these PBS solutions, 76.8 μL was transferred to 1423.2 μL of MH media in deep well for testing compound alone. […] Out of these working solutions 100 μL were transferred to wells in the third column of 96-well assay plates. Assay plates were previously filled with 50 μL of MH media in all wells except for the wells in the third column.
(§4) Microorganisms used were all revived from skim milk storage at −70° C. by plating them on MH agar plates. The following day a single colony of each microorganism was again streaked on fresh agar plates. The next day, using direct colony suspension method, broth solutions that achieve turbidity equivalent to 0.5 McFarland standard for each microorganism were prepared. […] Out of these suspensions, actual inoculums were prepared by diluting them 100× with MH media giving final microorganism count of 2-8×10^5 CFU/mL. For each strain of microorganisms, 20 mL of these inoculum solutions were prepared. From the second to the twelfth column of 96-well plates, 50 μL of these solutions were transferred per well. To the first column, 50 μL per well of pure growth media was added. In this manner the first column was used as sterility control of media used, the second column was used as control of microorganism's growth and the rest of the plate was used for MIC determination. All plates were incubated for 16-24 h at 37° C.
(§5) MIC value was determined by visual inspection of bacterial growth within 96-well plates. The first column in which there was no visible growth of bacteria was determined as MIC value for peptide or combination tested in that particular row.

[5] = system: Acinetobacter baumannii B2026, clinical isolate; experiment: microbe, parasite or virus in culture; conditions: B2026, clinical isolate
Method: as §2, §3, §4, §5

[6] = system: Escherichia coli ATCC BAA-2452; experiment: microbe, parasite or virus in culture; conditions: ATCC BAA-2452
Method: as §2, §3, §4, §5

[7] = system: Klebsiella pneumoniae ATCC BAA-2524; experiment: microbe, parasite or virus in culture; conditions: ATCC BAA-2524
Method: as §2, §3, §4, §5

[8] = system: Pseudomonas aeruginosa ATCC BAA-2108; experiment: microbe, parasite or virus in culture; conditions: ATCC BAA-2108
Method: as §2, §3, §4, §5

[9] = system: Pseudomonas aeruginosa B1954, clinical isolate; experiment: microbe, parasite or virus in culture; conditions: B1954, clinical isolate
Method: as §2, §3, §4, §5

[10] = in vitro; conditions: human
Method: (§6) ATP levels were measured by adding 50 μL of CellTiter-Glo reagent to each well and after 5 minutes of incubation luminescence was measured with SpectraMax i3.
(§7) 96-well plates were seeded with HEK293 cells at concentration of 30,000 cells per well in 100 μL of DMEM growth media supplemented with 1% NEAA and 10% FBS. Border wells were filled with 100 μL of sterile PBS. The next day compounds were added to cells. Compounds were first 2× diluted in 96-well V-bottom plate in PBS. After that compounds were mixed with media in 96-deep-well plate for final concentrations. Growth media from 3 plates was aspirated and replaced with 100 μL of prepared compounds. Compounds were tested in duplicate. ATP levels were measured by adding 50 μL of CellTiter-Glo reagent to each well and after 5 minutes of incubation luminescence was measured with SpectraMax i3. […] The potential effects were then calculated and presented as IC50 values (μg/mL).

[11] = system: HEK293 cells; experiment: in vitro
Method: as §6, §7

[12] = system: human red blood cells (HRBc); experiment: Hemolytic test; conditions: red cells of human, 1 h
Method: Fresh human red blood cells (HRBc) were used for the hemolytic tests. After incubation with different concentrations of test compounds at 37° C. for 1 hour, the absorbance of the supernatant were measured.

[13] = system: L. lactis MG1363; conditions: MG1363
[14] = system: Acinetobacter baumannii ATCC 17978; experiment: microbe, parasite or virus in culture; assay type: cell-based; conditions: ATCC 17978
Method: as §2, §3, §4, §5

[15] = system: Escherichia coli ATCC 25922; experiment: microbe, parasite or virus in culture; assay type: cell-based; conditions: ATCC 25922
Method: as §2, §3, §4, §5

[16] = system: Klebsiella pneumoniae ATCC 700603; experiment: microbe, parasite or virus in culture; assay type: cell-based; conditions: ATCC 700603
Method: as §2, §3, §4, §5

[17] = system: Pseudomonas aeruginosa ATCC 27853; experiment: microbe, parasite or virus in culture; assay type: cell-based; conditions: ATCC 27853
Method: as §2, §3, §4, §5

[18] = system: Escherichia coli B1927, clinical isolate; experiment: microbe, parasite or virus in culture; conditions: B1927, clinical isolate
Method: as §2, §3, §4, §5

[19] = system: Klebsiella pneumoniae B1945, clinical isolate; experiment: microbe, parasite or virus in culture; conditions: B1945, clinical isolate
Method: as §2, §3, §4, §5

Row | IC50 [10] | SMILES | MIC [14] [µg/mL] | MIC [15] [µg/mL] | MIC [16] [µg/mL] | MIC [17] [µg/mL] | MIC [4] [µg/mL] | MIC [5] [µg/mL] | MIC [6] [µg/mL] | MIC [18] [µg/mL] | MIC [7] [µg/mL] | MIC [19] [µg/mL] | MIC [8] [µg/mL] | MIC [9] [µg/mL] | other results
1 | ≥ 42.8 µM | CC[C@@H](C)[C@@H](NC(=O)[C@H](N)CCCNC(=N)N)C(=O)N[C@@H](C(=O)N[C@H](CCC(N)=O)C(=O)N[C@H](CCCNC(=N)N)C(=O)N[C@@H](C(=O)N[C@H](CCCCN)C(=O)N[C@H](CCCCN)C(=O)N[C@H](Cc1c[nH]c2ccccc12)C(=O)N[C@H](CC(C)C)C(=O)N[C@H](CCCNC(=N)N)C(N)=O)[C@H](C)CC)C(C)C [GNP-D8] | – | – | – | – | – | – | – | – | – | – | – | – | MIC value [1]: 4 µM (≈ 5.98 µg/mL); MIC value [2]: 8 µM (≈ 12 µg/mL); MIC value [3]: 32 µM (≈ 47.8 µg/mL); MIC value [4]: 10.7 µM; MIC value [5]: 10.7 µM; MIC value [6]: 5.35 µM; MIC value [7]: >85.62 µM; MIC value [8]: >85.62 µM; MIC value [9]: 85.62 µM; Effect on ATP levels [11]: do not affect the ATP levels; HC50 (hemolytic activity) [12]: >200 µM; MIC value of antimicrobial compounds alone [13]: 16 µM
2 | > 64 µg/mL | CC[C@@H](C)[C@@H](NC(=O)[C@H](N)CCCNC(=N)N)C(=O)N[C@@H](C(=O)N[C@H](CCC(N)=O)C(=O)N[C@H](CCCNC(=N)N)C(=O)N[C@@H](C(=O)N[C@H](CCCCN)C(=O)N[C@H](CCCCN)C(=O)N[C@H](Cc1c[nH]c2ccccc12)C(=O)N[C@H](CC(C)C)C(=O)N[C@H](CCCNC(=N)N)C(N)=O)[C@H](C)CC)C(C)C [D8] | 16 | 8 | >128 | 64 | 16 | 16 | 8 | 4 | >128 | 32 | >128 | 128 | –

Row | SMILES | IC50 [10] | MIC [14] [µg/mL] | MIC [15] [µg/mL] | MIC [16] [µg/mL] | MIC [17] [µg/mL] | MIC [4] [µg/mL] | MIC [5] [µg/mL] | MIC [6] [µg/mL] | MIC [18] [µg/mL] | MIC [7] [µg/mL] | MIC [19] [µg/mL] | MIC [8] [µg/mL] | MIC [9] [µg/mL] | other results
3 | CC[C@@H](C)[C@@H](NC(=O)[C@@H](CCCNC(=N)N)NC(=O)[C@@H](CCCNC(=N)N)NC(=O)[C@@H](Cc1ccccc1)NC(=O)[C@@H](CC(C)C)NC(=O)[C@@H](CCCNC(=N)N)NC(=O)[C@H](N)CCCNC(=N)N)C(=O)N[C@H](CC(C)C)C(=O)N[C@H](CCCNC(=N)N)C(=O)N[C@H](Cc1c[nH]c2ccccc12)C(=O)N[C@H](CC(C)C)C(N)=O [D6] | 52.1 µg/mL | 2 | 2 | 4 | 4 | 8 | 4 | 2 | 2 | 4 | 8 | 8 | 4 | –
